Source: paper PMC8286840, “Identifying SARS-CoV-2 antiviral compounds by screening for small molecule inhibitors of Nsp3 papain-like protease” (Biochemical Journal, 2021)
Counter-ions that a name gives are not always drawn. Like-named read-outs stand apart in the source and are kept apart here.

How the values were obtained:
[1] = target: T1, SARS-CoV-2 PLpro (nsp3 1564–1878) (Severe acute respiratory syndrome coronavirus 2, UniProt P0DTD1); assay: biochemical; parameters: FRET-quenched peptide (Pro3) cleavage by PLpro, 10 min pre-incubation, slope over 20 min, normalised to no-compound control; conditions: high concentration screen, read-out: % of control remaining
[2] = target: T1, SARS-CoV-2 PLpro (nsp3 1564–1878); assay: biochemical; parameters: FRET-quenched peptide (Pro3) cleavage by PLpro, 10 min pre-incubation, slope over 20 min, normalised to no-compound control; conditions: low concentration screen, read-out: % of control remaining

Compound: COc1ccc(CC(=O)NC(N=C(NC#N)Nc2cccc3ncccc23)C(C)(C)C)cc1OC (stereo not shown) [A-740003]
- remaining activity at 3.75 µM ([1]; Well no.=5421): 96.3%
- remaining activity at 1.25 µM ([2]; Well no.=5421): 92%

Compound: COc1cc(NC(=O)c2ccc(-c3ccc(Cl)cc3)o2)cc(OC)c1 [A-803467]
- remaining activity at 3.75 µM ([1]; Well no.=5117): 103%
- remaining activity at 1.25 µM ([2]; Well no.=5117): 105%

Compound: CCC(=O)c1cc(-c2ccc(Cl)cc2)n(-c2ccc(S(N)(=O)=O)cc2)c1C [A-867744]
- remaining activity at 3.75 µM ([1]; Well no.=8320): 94%
- remaining activity at 1.25 µM ([2]; Well no.=8320): 96.8%

Compound: CN(C)CC#Cc1ccc(OCCCc2sc(N3CCc4cccc(C(=O)Nc5nc6ccccc6s5)c4C3)nc2C(=O)O)c(F)c1 [A-1155463]
- remaining activity at 3.75 µM ([1]; Well no.=6344): 97.3%
- remaining activity at 1.25 µM ([2]; Well no.=6344): 96.3%

Compound: Cc1nn(C)c(COc2ccc(N3CCN(S(=O)(=O)N(C)C)CC3)cc2)c1-c1cccc2c(CCCOc3cccc4ccccc34)c(C(=O)O)n(CCN3CCOCC3)c12 [A-1210477]
- remaining activity at 3.75 µM ([1]; Well no.=6970): 101%
- remaining activity at 1.25 µM ([2]; Well no.=6970): 99.5%

Compound: Cc1c(-c2ccc(N3CCc4cccc(C(=O)Nc5nc6ccccc6s5)c4C3)nc2C(=O)O)cnn1CC12CC3CC(CC(C3)C1)C2 [A-1331852]
- remaining activity at 3.75 µM ([1]; Well no.=6592): 93.5%
- remaining activity at 1.25 µM ([2]; Well no.=6592): 102%

Compound: CC1=C(C)C(=O)C(CCCCC#CCCCC#CCO)=C(C)C1=O [AA-861]
- remaining activity at 3.75 µM ([1]; Well no.=109): 103%
- remaining activity at 3.75 µM ([1]; Well no.=3941): 102%
- remaining activity at 1.25 µM ([2]; Well no.=109): 106%
- remaining activity at 1.25 µM ([2]; Well no.=3941): 105%

Compound: CCCCC/C=C\C/C=C\C/C=C\C/C=C\CCCC(=O)C(F)(F)F [AACOCF3]
- remaining activity at 3.75 µM ([1]; Well no.=4486): 102%
- remaining activity at 1.25 µM ([2]; Well no.=4486): 102%

Compound: CNC(=O)[C@H]1O[C@@H](n2cnc3c(NCc4ccc(N)cc4)ncnc32)[C@H](O)[C@@H]1O [AB-MECA]
- remaining activity at 3.75 µM ([1]; Well no.=306): 87.8%
- remaining activity at 3.75 µM ([1]; Well no.=8699): 98.3%
- remaining activity at 1.25 µM ([2]; Well no.=306): 87.3%
- remaining activity at 1.25 µM ([2]; Well no.=8699): 95.8%

Compound: C[C@@H]1CCCN1CCc1cc2cc(-c3ccc(C#N)cc3)ccc2o1 [ABT-239]
- remaining activity at 3.75 µM ([1]; Well no.=8049): 101%
- remaining activity at 1.25 µM ([2]; Well no.=8049): 103%

Compound: Cc1cc([C@@H]2CCCN2C)on1 [ABT-418]
- remaining activity at 3.75 µM ([1]; Well no.=307): 99.2%
- remaining activity at 1.25 µM ([2]; Well no.=307): 97.8%

Compound: O=C(c1cc(S(=O)(=O)Nc2ccccc2F)c(F)cc1Cl)N1CCN2CCC[C@@H]2C1 [ABT-639]
- remaining activity at 3.75 µM ([1]; Well no.=7880): 95.4%
- remaining activity at 1.25 µM ([2]; Well no.=7880): 94.2%

Compound: CN(C)CC[C@H](CSc1ccccc1)Nc1ccc(S(=O)(=O)NC(=O)c2ccc(N3CCN(Cc4ccccc4-c4ccc(Cl)cc4)CC3)cc2)cc1[N+](=O)[O-] [ABT-737]
- remaining activity at 3.75 µM ([1]; Well no.=2692): 101%
- remaining activity at 3.75 µM ([1]; Well no.=6348): 96.5%
- remaining activity at 3.75 µM ([1]; Well no.=8314): 97.8%
- remaining activity at 1.25 µM ([2]; Well no.=2692): 102%
- remaining activity at 1.25 µM ([2]; Well no.=6348): 99.7%
- remaining activity at 1.25 µM ([2]; Well no.=8314): 98.5%

Compound: COc1ccc(S(=O)(=O)Nc2cccnc2Nc2ccc(O)cc2)cc1 [ABT-751]
- remaining activity at 3.75 µM ([1]; Well no.=5226): 92.1%
- remaining activity at 1.25 µM ([2]; Well no.=5226): 91.8%

Compound: Cc1ccc(F)c(NC(=O)Nc2ccc(-c3cccc4[nH]nc(N)c34)cc2)c1 [ABT-869]
- remaining activity at 3.75 µM ([1]; Well no.=2740): 93.3%
- remaining activity at 1.25 µM ([2]; Well no.=2740): 94.6%

Compound: C[C@]1(c2nc3c(C(N)=O)cccc3[nH]2)CCCN1 [ABT-888 (Veliparib)]
- remaining activity at 3.75 µM ([1]; Well no.=5222): 94.2%
- remaining activity at 1.25 µM ([2]; Well no.=5222): 95.8%

Compound: O=C(Cc1ccc(Cl)c(Cl)c1)OCCN1CCCC1 [AC 915 oxalate]
- remaining activity at 3.75 µM ([1]; Well no.=61): 102%
- remaining activity at 1.25 µM ([2]; Well no.=61): 104%

Compound: C/C(=N\NC(=O)C(NC(=O)c1ccccc1)c1n[nH]c(=O)c2ccccc12)c1cccc(Br)c1 (stereo not shown) [AC-55541]
- remaining activity at 3.75 µM ([1]; Well no.=6997): 106%
- remaining activity at 1.25 µM ([2]; Well no.=6997): 106%

Compound: COc1ccc(S(=O)(=O)N2CCC[C@H]2C(=O)Nc2cc(C)cc(C)c2)cc1 [ACT-462206]
- remaining activity at 3.75 µM ([1]; Well no.=6052): 90.9%
- remaining activity at 1.25 µM ([2]; Well no.=6052): 95.5%

Compound: CCN(CC)C(=O)c1ccc(C2=CC3(CCNCC3)Oc3cccc(O)c32)cc1 [ADL5859 HCl]
- remaining activity at 3.75 µM ([1]; Well no.=5051): 98.3%
- remaining activity at 1.25 µM ([2]; Well no.=5051): 101%

Compound: CCN(CC)C(=O)c1ccc(C2=CC3(CCNCC3)Oc3cccc(O)c32)cc1 [ADL-5859]
- remaining activity at 3.75 µM ([1]; Well no.=8013): 85.8%
- remaining activity at 1.25 µM ([2]; Well no.=8013): 92.2%

Compound: CCN1CCN(Cc2ccc(-c3cc4c(N[C@H](C)c5ccccc5)ncnc4[nH]3)cc2)CC1 [AEE788 (NVP-AEE788)]
- remaining activity at 3.75 µM ([1]; Well no.=5247): 102%
- remaining activity at 1.25 µM ([2]; Well no.=5247): 102%

Compound: CN(C)Cc1ccc(-c2nc3cccc4c3n2CCNC4=O)cc1 [AG14361]
- remaining activity at 3.75 µM ([1]; Well no.=5272): 97.3%
- remaining activity at 1.25 µM ([2]; Well no.=5272): 98.1%

Compound: N#CC(C#N)=C(N)/C(C#N)=C/c1ccc(O)cc1 [AG 112]
- remaining activity at 3.75 µM ([1]; Well no.=2609): 91.5%
- remaining activity at 1.25 µM ([2]; Well no.=2609): 97%

Compound: N#C/C(=C\c1ccc(O)c(O)c1)C(=O)NCc1ccccc1 [AG 490 - (E)-2-Cyano-3-(3,4-dihydrophenyl)-N-(phenylmethyl)-2-propenamide]
- remaining activity at 3.75 µM ([1]; Well no.=2332): 93.5%
- remaining activity at 1.25 µM ([2]; Well no.=2332): 95%

Compound: N#C/C(=C\c1ccc(O)c(O)c1)C(=O)NCc1ccccc1 [AG 490]
- remaining activity at 3.75 µM ([1]; Well no.=2607): 97%
- remaining activity at 1.25 µM ([2]; Well no.=2607): 95.5%

Compound: CC(C)(C)c1cc(C=C(C#N)C#N)cc(Br)c1O [AG 1024]
- remaining activity at 3.75 µM ([1]; Well no.=2307): 104%
- remaining activity at 1.25 µM ([2]; Well no.=2307): 104%

Compound: Cc1cc2ncc(-c3ccccc3)nc2cc1C [AG 1295]
- remaining activity at 3.75 µM ([1]; Well no.=2611): 97.7%
- remaining activity at 1.25 µM ([2]; Well no.=2611): 97.5%

Compound: COc1cc2ncc(-c3ccccc3)nc2cc1OC [AG 1296]
- remaining activity at 3.75 µM ([1]; Well no.=2613): 90.5%
- remaining activity at 1.25 µM ([2]; Well no.=2613): 91.6%

Compound: COc1cc2ncnc(Nc3cccc(Cl)c3)c2cc1OC [AG 1478]
- remaining activity at 3.75 µM ([1]; Well no.=2643): 99.8%
- remaining activity at 1.25 µM ([2]; Well no.=2643): 97.4%

Compound: Cc1nc2cc3nc(-c4cccs4)cnc3cc2n1C [AGL 2043]
- remaining activity at 3.75 µM ([1]; Well no.=2309): 103%
- remaining activity at 1.25 µM ([2]; Well no.=2309): 104%

Compound: CC(C)[C@H]1[C@@H]2CC[C@@H](C2)[C@@H]1N [AGN 192403 hydrochloride]
- remaining activity at 3.75 µM ([1]; Well no.=116): 104%
- remaining activity at 1.25 µM ([2]; Well no.=116): 101%

Compound: O=C(O)CCC/C=C\C[C@@H]1[C@@H](/C=C/[C@H](O)C2Cc3ccccc3C2)[C@@H](F)C[C@@H]1O [AL-8810]
- remaining activity at 3.75 µM ([1]; Well no.=205): 104%
- remaining activity at 1.25 µM ([2]; Well no.=205): 100%

Compound: Cc1noc(-c2ccc(-c3ccc(CC(=O)O)cc3)cc2)c1NC(=O)O[C@H](C)c1ccccc1 [AM095]
- remaining activity at 3.75 µM ([1]; Well no.=7815): 94%
- remaining activity at 1.25 µM ([2]; Well no.=7815): 101%
